Measured values published in patent US20140154337A1, “ANTIMICROBIAL AGENTS AND METHODS FOR USE THEREOF IN THE ABATEMENT OF FOOD BORNE PATHOGENIC ORGANISMS” (priority 2011, published 2014).

Tested on: Escherichia coli ATCC strain number 8739
Assay: Enteral antimicrobial laboratory evaluation: inoculated tryptic soy agar plates sprayed with test mixture, enumerated after three days
Assay type: cell-based
Conditions: TSA plates sprayed, phosphoric acid added to pH approximately 3.2 simulating mammalian stomach
Procedure: In particular, testing was conducted as follows:
Six (6) identical conventional tryptic soy agar (“TSA”) plates were inoculated with Escherichia coli of the ATCC strain number 8739, which, as previously discussed, is a feces derived strain typical of that expected in the applications of the present invention.
The inoculated plates were then separated into three (3) groups of two (2) plates each, which groups were treated as follows: • a. […] Group III was sprayed with purified water only (in order to establish a negative control for the evaluation).

O=P(O)(O)O [phosphoric acid solution, phosphoric acid]
growth of Escherichia coli: only a minor reduction in the growth
